Results from BindingDB's records for patent US12187709 (Genentech, 2025).
pIC50, pKd: −log10 of the molar value.

Tests used:
[1] = biological target: T1, E3 ubiquitin-protein ligase CBL (Homo sapiens, UniProt P22681); test: Cbl-b and C-Cbl LCK Ub TR-FRET Assay
Experimental: 6 μL of detection mixture was added to all wells and briefly centrifuged before incubating for 20 min at room temperature. […] IC50 was generated using no LCK as the low control and DMSO as the high control.

[2] = biological target: T1, E3 ubiquitin-protein ligase CBL; test: Multi-Point Chaser SPR Assay Variation
Experimental: (§1) Table 4: Chaser assay utilize a single cycle kinetics SPR experiment with a contact time of 120 seconds, a flow rate of 50 μl/min and a dissociation time of 450 seconds. […] The kd is measured independently by determining the percentage unoccupied compound binding site over time by measuring the binding of a chaser compound measured by SPR.Chaser binding was measured by a multicycle kinetics SPR experiment using a contact time of 20 seconds, a flow rate of 30 μl/min, and a dissociation time of 120 seconds. […] The % compound bound at a given time was determined by comparison to a single injection of chaser preceding the single cycle kinetics titration defined below.% Compound Bound=(1−(RUT/RUT0))*100

[3] = biological target: E3 ubiquitin-protein ligase CBL-B (Homo sapiens, UniProt Q13191); test: Multi-Point Chaser SPR Assay Variation
Experimental: as §1

E3 ubiquitin-protein ligase CBL-B, sequence (Q13191 whole entry): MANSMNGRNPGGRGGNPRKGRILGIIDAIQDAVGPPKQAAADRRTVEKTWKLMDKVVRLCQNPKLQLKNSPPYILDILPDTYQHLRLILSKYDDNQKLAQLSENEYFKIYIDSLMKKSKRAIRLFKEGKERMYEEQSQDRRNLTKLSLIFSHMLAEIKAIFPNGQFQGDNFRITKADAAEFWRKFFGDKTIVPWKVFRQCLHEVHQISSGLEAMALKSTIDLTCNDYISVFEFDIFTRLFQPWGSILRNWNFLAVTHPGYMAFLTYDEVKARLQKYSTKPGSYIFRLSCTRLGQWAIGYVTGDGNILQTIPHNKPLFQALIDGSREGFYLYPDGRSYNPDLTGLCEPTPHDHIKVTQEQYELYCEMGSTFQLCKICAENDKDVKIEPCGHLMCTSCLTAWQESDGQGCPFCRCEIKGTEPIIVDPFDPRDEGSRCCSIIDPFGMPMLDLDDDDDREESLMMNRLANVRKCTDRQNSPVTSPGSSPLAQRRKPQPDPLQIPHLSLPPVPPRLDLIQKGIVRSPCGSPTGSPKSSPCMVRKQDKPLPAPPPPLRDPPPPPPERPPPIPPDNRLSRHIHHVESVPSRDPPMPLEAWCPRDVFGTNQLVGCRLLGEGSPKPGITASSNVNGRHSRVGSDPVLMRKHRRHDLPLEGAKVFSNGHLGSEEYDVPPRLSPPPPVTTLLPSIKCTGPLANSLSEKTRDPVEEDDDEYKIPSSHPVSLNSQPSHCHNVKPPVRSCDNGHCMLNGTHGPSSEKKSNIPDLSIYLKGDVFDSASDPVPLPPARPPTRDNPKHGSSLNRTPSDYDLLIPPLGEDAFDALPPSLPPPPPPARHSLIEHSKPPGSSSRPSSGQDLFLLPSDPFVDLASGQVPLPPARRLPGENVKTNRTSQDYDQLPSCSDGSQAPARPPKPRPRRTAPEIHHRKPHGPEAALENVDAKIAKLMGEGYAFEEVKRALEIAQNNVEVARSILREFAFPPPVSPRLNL

| pIC50 [1] | pKd [2] | pKd [3] | Compound |
| --- | --- | --- | --- |
| 7.28 | 7.70 | 8.19 | Cn1cnnc1[C@]1(c2cc(NC3CCCCC3)nc(N3Cc4c(cc(CNC5(C)CCC5)cc4C(F)(F)F)C3=O)c2)C[C@@H](C)C1 [US12187709, Compound 50] |
| 8.03 | 7.96 | 9.02 | Cn1cnnc1[C@]1(c2cc(NC3CCCC3)nc(N3Cc4c(cc(CNC5(C)CCC5)cc4C(F)(F)F)C3=O)c2)C[C@@H](C)C1 [US12187709, Compound 52] |
| 6.94 | 7.82 | 8.89 | Cn1cnnc1[C@]1(c2cc(OC3CCCC3)nc(N3Cc4c(cc(CNC5(C)CCC5)cc4C(F)(F)F)C3=O)c2)C[C@H](C)C1 [US12187709, Compound 54] |

Second part, the compound before the results:

| Compound | pIC50 [1] | pKd [2] | pKd [3] |
| --- | --- | --- | --- |
| CO[C@@](c1cccc(N2Cc3c(cc(CNC4(C)CCC4)cc3C(F)(F)F)C2=O)c1)(c1nncn1C)C1CCC1 (single isomer, unassigned) [US12187709, Compound 118] | ≤ 4.70 | – | – |
| Cn1cnnc1[C@]1(c2cc(NC3CCCCC3)nc(N3Cc4c(cc(CNC5(C)CCC5)cc4C(F)(F)F)C3=O)c2)C[C@H](C)C1 [US12187709, Compound 51] | 7.21 | – | – |
| Cn1cnnc1[C@]1(c2cc(NC3CCCC3)nc(N3Cc4c(cc(CNC5(C)CCC5)cc4C(F)(F)F)C3=O)c2)C[C@H](C)C1 [US12187709, Compound 53] | 8.20 | 8.19 | 9.15 |
| Cn1cnnc1[C@]1(c2cc(OC3CCCC3)nc(N3Cc4c(cc(CNC5(C)CCC5)cc4C(F)(F)F)C3=O)c2)C[C@@H](C)C1 [US12187709, Compound 55] | 8.03 | – | – |
| CC(=O)N1CC(c2cccc(N3Cc4c(cc(CNC5(C)CCC5)cc4C(F)(F)F)C3=O)c2)(c2nncn2C)C1 [US12187709, Compound 112] | ≤ 4.70 | – | – |
